pKi: −log10 of the molar value. Counter-ions that a name gives are not always drawn.
Target: purified human Factor XIa (Homo sapiens (Human), UniProt P03951)
Assay: Factor XIa enzyme inhibition assay (chromogenic substrate S-2366)
Assay type: biochemical
Conditions: substrate S-2366, pH 7.4
Description: The effectiveness of compounds of the present invention as inhibitors of the coagulation Factors XIa, VIIa, IXa, Xa, XIIa, plasma kallikrein or thrombin, can be determined using a relevant purified serine protease, respectively, and an appropriate synthetic substrate. The rate of hydrolysis of the chromogenic or fluorogenic substrate by the relevant serine protease was measured both in the absence and presence of compounds of the present invention. […] A decrease in the rate of absorbance or fluorescence change in the presence of inhibitor is indicative of enzyme inhibition. Such methods are known to one skilled in the art. The results of this assay are expressed as the inhibitory constant, Ki.
Values of Ki were determined by allowing the protease to react with the substrate in the presence of the inhibitor. Reactions were allowed to go for periods of 20-180 minutes (depending on the protease) and the velocities (rate of absorbance or fluorescence change versus time) were measured. The following relationships were used to calculate Ki values: (vo−vs)/vs=I/(Ki(1+S/Km)) for a competitive inhibitor with one binding site; or vs/vo=A+((B−A)/1+((IC50/(I)n))); and Ki=IC50/(1+S/Km) for a competitive inhibitor where: […]

Sequence of purified human Factor XIa (P03951 388-625): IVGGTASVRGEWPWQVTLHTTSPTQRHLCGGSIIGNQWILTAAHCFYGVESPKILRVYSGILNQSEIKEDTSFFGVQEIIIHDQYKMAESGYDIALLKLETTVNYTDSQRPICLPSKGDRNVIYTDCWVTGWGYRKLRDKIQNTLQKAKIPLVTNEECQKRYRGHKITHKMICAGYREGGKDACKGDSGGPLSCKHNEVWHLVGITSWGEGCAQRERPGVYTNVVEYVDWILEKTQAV
Sequence of purified human Factor XIa (P03951 19-387 partner): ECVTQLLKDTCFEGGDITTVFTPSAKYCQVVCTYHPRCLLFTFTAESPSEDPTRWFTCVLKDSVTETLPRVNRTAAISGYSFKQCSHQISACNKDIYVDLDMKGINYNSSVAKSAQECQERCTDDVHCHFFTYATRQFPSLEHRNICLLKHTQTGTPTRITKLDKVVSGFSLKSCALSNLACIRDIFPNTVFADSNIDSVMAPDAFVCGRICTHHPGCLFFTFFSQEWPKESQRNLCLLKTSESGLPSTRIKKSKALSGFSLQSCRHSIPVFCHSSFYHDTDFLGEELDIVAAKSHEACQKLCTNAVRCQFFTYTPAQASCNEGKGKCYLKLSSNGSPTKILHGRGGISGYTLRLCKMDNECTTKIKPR

First: O=C(/C=C/c1cc(Cl)ccc1-n1cnnn1)N[C@H]1CC=CCCC(=O)Nc2ccccc2C2=NN=C1O2 (mixture of isomers) [Example 122, (E)-3-(5-Chloro-2-tetrazol-1-yl-phenyl)-N-((S)-9-oxo-19-oxa-8,17,18-triaza-tricyclo[14.2.1.0^2,7]nonadeca-1(18),2,4,6,12,16-hexaen-15-yl)-acrylamide, and (Z)-3-(5-Chloro-2-tetrazol-1-yl-phenyl)-N-((S)-9-oxo-19-oxa-8,17,18-triaza-tricyclo[14.2.1.0^2,7]nonadeca-1(18),2,4,6,12,16-hexaen-15-yl)-acrylamide]
Second: O=C(/C=C/c1cc(Cl)ccc1-n1cnnn1)N[C@H]1C/C=C/COC(=O)Nc2ccccc2-c2nc1[nH]c2Cl [Example 121, (E)-N-((E)-(S)-18-Chloro-9-oxo-10-oxa-8,17,19-triaza-tricyclo[14.2.1.0^2,7]nonadeca-1(18),2,4,6,12,16(19)-hexaen-15-yl)-3-(5-chloro-2-tetrazol-1-yl-phenyl)-acrylamide]
The pKi of the first is lower: 7.60 for the first, > 8.30 for the second. The second binds more tightly here.

Compared with `COC(=O)Nc1ccc2c(c1)NC(=O)CCC(C)CC[C@H](NC(=O)/C=C/c1cc(Cl)ccc1-n1cnnn1)c1nc-2c[nH]1` (single isomer, unassigned) [Example 61], `COC(=O)Nc1ccc2c(c1)NC(=O)CC(O)C(O)C[C@H](NC(=O)/C=C/c1cc(Cl)ccc1-n1cnnn1)c1nc-2c[nH]1` (single isomer, unassigned) [Example 137] is lower in pKi: > 8.30 for the first, 6.72 for the second. The first binds more tightly here.

First: COC(=O)Nc1ccc2c(c1)NS(=O)(=O)CC=CC[C@H](NC(=O)/C=C/c1cc(Cl)ccc1-n1cnnn1)c1nc-2c[nH]1 (stereo in doubt) [Example 19, {(E)-(S)-14-[(E)-3-(5-Chloro-2-tetrazol-1-yl-phenyl)-acryloylamino]-9,9-dioxo-9λ^6-thia-8,16,18-triaza-tricyclo[13.2.1.0^2,7]octadeca-1(17),2,4,6,11,15(18)-hexaen-5-yl}-carbamic acid methyl ester]
Second: COC(=O)Nc1ccc2c(c1)CCC/C=C/C[C@H](NC(=O)/C=C/c1cc(Cl)ccc1-n1cnnn1)c1nc-2c[nH]1 [Example 4, {(E)-(S)-14-[(E)-3-(5-Chloro-2-tetrazol-1-yl-phenyl)-acryloylamino]-16,18-diaza-tricyclo[13.2.1.0^2,7]octadeca-1(17),2,4,6,11,15(18)-hexaen-5-yl}-carbamic acid methyl ester]
The pKi of the first is 0.82 log units higher: 7.02 for the first, 6.20 for the second.

Going from `NC[C@H]1CC[C@H](C(=O)N[C@H]2C/C=C/CCCc3ccccc3-c3c[nH]c2n3)CC1` [Example 3] to `COC(=O)Nc1ccc2c(c1)NC(=O)CC/C=C/C[C@H](NC(=O)[C@H]1CC[C@H](CN)CC1)c1cc-2ccn1` [Example 90, {(E)-(S)-15-[(4-Aminomethyl-cyclohexanecarbonyl)-amino]-9-oxo-8,17-diaza-tricyclo[14.3.1.0^2,7]icosa-1(20),2(7),3,5,12,16,18-heptaen-5-yl}-carbamic acid methyl ester], the pKi rises from 5.21 to > 8.30.

Going from `COC(=O)Nc1ccc2c(c1)CCCCCC[C@H](NC(=O)/C=C/c1cc(Cl)ccc1-n1cnnn1)c1nc-2c[nH]1` [Example 6, {(S)-14-[(E)-3-(5-Chloro-2-tetrazol-1-yl-phenyl)-acryloylamino]-16,18-diaza-tricyclo[13.2.1.0^2,7]octadeca-1(17),2,4,6,15(18)-pentaen-5-yl}-carbamic acid methyl ester] to `COC(=O)Nc1ccc2c(c1)NCCCCC[C@H](NC(=O)/C=C/c1cc(Cl)ccc1-n1cnnn1)c1nc-2c[nH]1` [Example 11, {(S)-14-[(E)-3-(5-Chloro-2-tetrazol-1-yl-phenyl)-acryloylamino]-8,16,18-triaza-tricyclo[13.2.1.0^2,7]octadeca-1(17),2,4,6,15(18)-pentaen-5-yl}-carbamic acid methyl ester], the pKi rises from 7.47 to 8.22 (0.75 log units). The second binds more tightly here.

Going from `COC(=O)Nc1ccc2c(c1)OCCCCC[C@H](NC(=O)/C=C/c1cc(Cl)ccc1-n1cnnn1)c1nc-2c(Cl)[nH]1` [Example 9, {(S)-17-Chloro-14-[(E)-3-(5-chloro-2-tetrazol-1-yl-phenyl)-acryloylamino]-8-oxa-16,18-diaza-tricyclo[13.2.1.0^2,7]octadeca-1(17),2,4,6,15(18)-pentaen-5-yl}-carbamic acid methyl ester] to `COC(=O)Nc1ccc2c(c1)N[C@@H](C(F)(F)F)CCCC[C@H](NC(=O)/C=C/c1cc(Cl)ccc1-n1cnnn1)c1nc-2c(Cl)[nH]1` [Example I-60], the pKi falls from 6.60 to 6.21 (0.39 log units).

First: COC(=O)Nc1ccc2c(c1)NCC(F)(F)C(=O)NC[C@H](NC(=O)/C=C/c1cc(Cl)ccc1-n1cnnn1)c1nc-2c[nH]1 [Example 21, {(S)-14-[(E)-3-(5-Chloro-2-tetrazol-1-yl-phenyl)-acryloylamino]-10,10-difluoro-11-oxo-8,12,16,18-tetraaza-tricyclo[13.2.1.0^2,7]octadeca-1(17),2,4,6,15(18)-pentaen-5-yl}-carbamic acid methyl ester]
Second: COC(=O)Nc1ccc2c(c1)NC(=O)CCCC[C@H](NC(=O)/C=C/c1cc(Cl)ccc1-n1ccnn1)c1nc-2c[nH]1 [Example I-5]
The pKi of the first is lower: 5.35 for the first, > 8.30 for the second. The second binds more tightly here.

Going from `COC(=O)Nc1ccc2c(c1)NC(=O)CC/C=C/CC(NC(=O)/C=C/c1cc(Cl)ccc1-n1cnnn1)c1cc(Cl)nnc1-2` (stereo not drawn) [Example 89, Methyl((E)-3-chloro-5-((E)-3-(5-chloro-2-(1H-tetrazol-1-yl)phenyl)acrylamido)-11-oxo-5,6,9,10,11,12-hexahydrobenzo[b]pyridazino[3,4-d][1]azacyclododecin-14-yl)carbamate] to `COC(=O)Nc1ccc2c(c1)NC(=O)CC/C=C/CC(NC(=O)/C=C/c1cc(Cl)ccc1-n1cnnn1)c1cccc-2c1` (stereo not drawn) [Example 93, {(E)-15-[(E)-3-(5-Chloro-2-tetrazol-1-yl-phenyl)-acryloylamino]-9-oxo-8-aza-tricyclo[14.3.1.0^2,7]icosa-1(20),2,4,6,12,16,18-heptaen-5-yl}-carbamic acid methyl ester], the pKi rises from 5.98 to > 8.30.

First: COC(=O)Nc1ccc2c(c1)NC(=O)CC/C=C/C[C@H](NC(=O)c1ccc(C#N)cc1)c1nc-2c(Cl)[nH]1 [Example 136, [(E)-(S)-18-Chloro-15-(4-cyano-benzoylamino)-9-oxo-8,17,19-triaza-tricyclo[14.2.1.0^2,7]nonadeca-1(18),2,4,6,12,16(19)-hexaen-5-yl]-carbamic acid methyl ester, 1 TFA salt]
Second: COC(=O)Nc1ccc2c(c1)NC(=O)CCCC[C@H](NC(=O)c1ccc(C(=N)N)cc1)c1nc-2c[nH]1 [Example I-4]
The pKi of the first is lower: 6.02 for the first, > 8.30 for the second.

Compared with `O=C(/C=C/c1cc(Cl)ccc1-n1cnnn1)N[C@H]1CCCCC(=O)Nc2cnccc2-c2ccnc1c2` [Example 138, (E)-3-(5-Chloro-2-tetrazol-1-yl-phenyl)-N-((S)-9-oxo-5,8,16-triaza-tricyclo[13.3.1.0^2,7]nonadeca-1(19),2,4,6,15,17-hexaen-14-yl)-acrylamide, 2 TFA salt], `COC(=O)Nc1ccc2c(c1)NC(=O)C/C=C/CC(NC(=O)/C=C/c1cc(Cl)ccc1-n1cnnn1)c1cc-2nc(C)n1` (stereo not drawn) [Example 167, {(E)-14-[(E)-3-(5-Chloro-2-tetrazol-1-yl-phenyl)-acryloylamino]-17-methyl-9-oxo-8,16,18-triaza-tricyclo[13.3.1.0^2,7]nonadeca-1(19),2,4,6,11,15,17-heptaen-5-yl}-carbamic acid methyl ester] is 0.90 log units lower in pKi: 7.70 for the first, 6.80 for the second.

First: COC(=O)Nc1ccc2c(c1)NC(=O)CCCC[C@H](NC(=O)c1cc(-c3cccc(Cl)c3)no1)c1nc-2c[nH]1 [Example I-9]
Second: COC(=O)Nc1ccc2c(c1)NC(=O)CCCC[C@H](NC(=O)c1cn(-c3cccc(Cl)c3)nn1)c1nc-2c[nH]1 [Example I-10]
The pKi of the first is 0.93 log units lower: 5.73 for the first, 6.66 for the second.

First: COC(=O)Nc1ccc2c(c1)NC(=O)CCCC[C@H](NC(=O)c1ccc3c(c1)CCCN3)c1nc-2c[nH]1 [Example I-13]
Second: COC(=O)Nc1ccc2c(c1)NC(=O)CCCC[C@H](NC(=O)c1ccc3ncccc3c1)c1nc-2c[nH]1 [Example I-14]
The pKi of the first is 0.98 log units higher: 6.51 for the first, 5.53 for the second. The first binds more tightly here.

First: COC(=O)Nc1ccc2c(c1)NC(=O)CCCC[C@H](NC(=O)c1cccc3ccccc13)c1nc-2c[nH]1 [Example I-17]
Second: COC(=O)Nc1ccc2c(c1)NC(=O)CCCC[C@H](NC(=O)c1c(F)cc3c(ncn3C)c1F)c1nc-2c(F)[nH]1 [Example I-21]
The pKi of the first is lower: 6.45 for the first, > 8.30 for the second.

First: COC(=O)Nc1ccc2c(c1)NC(=O)C(C)CCC[C@H](NC(=O)c1c(F)cc3c(ncn3C)c1F)c1nc-2c(Cl)[nH]1 (stereo partly drawn) [Example I-57]
Second: COC(=O)Nc1ccc2c(c1)NC(=O)C(C)CCC[C@H](NC(=O)c1c(F)cc3c(ccn3C)c1F)c1nc-2c(Cl)[nH]1 (stereo partly drawn) [Example I-59]
The pKi of the first is lower: 8.18 for the first, > 8.30 for the second.

`CCOC(=O)[C@@H]1CCCC[C@H](NC(=O)/C=C/c2cc(Cl)ccc2-n2cnnn2)c2nc(c[nH]2)-c2ccc(NC(=O)OC)cc2N1` [Example I-67, (9S,14S)-14-[(E)-3-(5-Chloro-2-tetrazol-1-yl-phenyl)-acryloylamino]-5-methoxycarbonylamino-8,16,18-triaza-tricyclo[13.2.1.0^2,7]octadeca-1(17),2,4,6,15(18)-pentaene-9-carboxylic acid ethyl ester, 2 TFA salt] and `COC(=O)Nc1ccc2c(c1)N[C@@H](C(F)(F)F)CCCC[C@H](NC(=O)/C=C/c1cc(Cl)ccc1-n1cnnn1)c1nc-2c(C)[nH]1` [Example I-70] are within 0.2 log units of each other in pKi: 6.69 for the first, 6.57 for the second.
